Literature values as cited in PMC7797166 (Journal of thoracic oncology : official publication of the …, 2020).
Where two headings read alike, the source gives them in different places.

System: T cell
Details: ref Li et al[31], cited from earlier work

| Sequence | tetramer assay (HLA-A*31:01) | tetramer assay (HLA-A*11:01) |
| --- | --- | --- |
| HVKITDFGR | positive |  |
| KITDFGRAK |  | negative |
